Experimental data as given in patent publication EP4559912A1, “SULFUR-CONTAINING HETEROAROMATIC RING COMPOUND, PHARMACEUTICAL COMPOSITION THEREOF, AND USE THEREOF” (Evopoint Biosciences Co., Ltd., priority 2022, dated 2024).

Biological target: His-GST tagged PARG (Homo sapiens, UniProt Q86W56)
Test: In vitro PARG assay (TR-FRET)
Format: biochemical
Settings: 4 pM His-GST tagged PARG, 30 nM Bio PARylated PARP1 substrate, 20 min at room temperature, TR-FRET Em 665/Em 615
Protocol: The in vitro PARG assay experiment was conducted in a standard 384-well plate with a total volume of 15 µL. To a 384-well plate containing the test compound was added 5 µL of an enzyme reaction mixture (50 mM Tris-HCL pH 7.5, 50 mM KCL, 0.01% Triton X-100, 0.01% BSA, and 4 pM His-GST tagged PARG). The plate was incubated at room temperature for 10 min, and then 5 µL of a substrate mixture (50 mM Tris-HCL pH 7.5, 50 mM KCL, 0.01% Triton X-100, 0.01% BSA, and 30 nM Bio PARylated PARP1) was added to initiate the reaction. The plate was further incubated at room temperature for 20 min, and then 5 µL of a detection reagent was added to terminate the reaction. The detection reagent was prepared from a buffer (50 mM Tris-HCl pH 7.5, 50 mM KCL, 0.01% Triton X-100, and 0.01% BSA), 3 µM compound PDD00017273, 1.5× Mab anti-6HIS XL665 (Cisbio: 61HISXLA), and 1.5× streptavidin terbium cryptate (Cisbio: 610SATLA). The final concentrations of the compound PDD00017273, the 1.5× Mab anti-6HIS XL665 (Cisbio: 61HISXLA), and the 1.5× streptavidin terbium cryptate were 1 µM, 0.5×, and 0.5×, respectively. After incubation in the dark at room temperature for 120 min, TR-FRET signals were measured at Ex 340, Em 665, and Em 615. The ratio for each well was calculated as Em 665/Em 615 (the ratio here corresponds to the ratio of fluorescence signals at the wavelengths).

Sequence of His-GST tagged PARG (Q86W56 whole entry): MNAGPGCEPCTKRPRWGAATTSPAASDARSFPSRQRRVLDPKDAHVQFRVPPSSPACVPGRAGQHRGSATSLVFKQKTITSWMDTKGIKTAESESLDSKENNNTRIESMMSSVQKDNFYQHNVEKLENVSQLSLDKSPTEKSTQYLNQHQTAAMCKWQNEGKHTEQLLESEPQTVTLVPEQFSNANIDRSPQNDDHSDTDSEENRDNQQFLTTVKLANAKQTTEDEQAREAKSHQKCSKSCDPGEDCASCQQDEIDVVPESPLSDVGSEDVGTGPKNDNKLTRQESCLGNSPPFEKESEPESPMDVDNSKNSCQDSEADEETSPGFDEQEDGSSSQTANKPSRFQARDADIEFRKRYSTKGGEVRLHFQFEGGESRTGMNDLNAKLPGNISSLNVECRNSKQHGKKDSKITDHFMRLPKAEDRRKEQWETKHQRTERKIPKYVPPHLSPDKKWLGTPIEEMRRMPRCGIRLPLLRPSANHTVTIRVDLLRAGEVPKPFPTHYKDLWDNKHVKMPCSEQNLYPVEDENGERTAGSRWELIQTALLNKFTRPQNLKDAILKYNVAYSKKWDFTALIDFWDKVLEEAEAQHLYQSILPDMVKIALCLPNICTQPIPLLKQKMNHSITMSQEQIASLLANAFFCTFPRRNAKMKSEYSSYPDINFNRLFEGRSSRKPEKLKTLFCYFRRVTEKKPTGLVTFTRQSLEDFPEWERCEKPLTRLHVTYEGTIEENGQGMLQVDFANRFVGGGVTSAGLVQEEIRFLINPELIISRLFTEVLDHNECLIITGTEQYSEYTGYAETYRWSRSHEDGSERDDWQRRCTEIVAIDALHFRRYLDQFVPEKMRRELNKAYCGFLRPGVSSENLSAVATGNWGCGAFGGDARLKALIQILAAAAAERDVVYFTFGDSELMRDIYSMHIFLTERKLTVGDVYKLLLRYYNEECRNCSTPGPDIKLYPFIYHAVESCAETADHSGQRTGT

| Structure (SMILES) | IC50 |
| --- | --- |
| Cc1nnc(-n2ncc3c(N4CCN(C(=O)[C@@H](N)CO)[C@H](C)C4)cc(S(=O)(=O)NC4(C)CC4)cc32)s1 [EVO29314] | 100 to 500 nM |
| CC(C)[C@@H](O)C(=O)N1CCN(c2cc(S(=O)(=O)NC3(C#N)CC3)cc3c2cnn3-c2nnc(C(F)F)s2)C[C@H]1C [EVO29335] | < 100 nM |
| Cc1nnc(-n2ncc3c(N4CCN(C(=O)[C@@H](C)O)[C@H](C)C4)cc(S(=O)(=O)NC4(C#N)CC4)cc32)s1 [EVO29336] | < 100 nM |
| C[C@@H]1CN(c2cc(S(=O)(=O)NC3(C)CC3)cc3c2cnn3-c2nnc(C(F)F)s2)CCN1C(=O)[C@@H](C)O [EVO29337] | < 100 nM |
| Cc1nnc(-n2ncc3c(N4CCN(C(=O)[C@@H](C)O)[C@H](C)C4)cc(S(=O)(=O)NC4(C)CC4)cc32)s1 [EVO29338] | < 100 nM |
| C[C@@H]1CN(c2cc(S(=O)(=O)NC3(C#N)CC3)cc3c2cnn3-c2nnc(C(F)F)s2)CCN1C(=O)C(C)(C)O [EVO29339] | < 100 nM |
| C[C@H](CO)C(=O)N1CCN(c2cc(S(=O)(=O)NC3(C#N)CC3)cc3c2cnn3-c2nnc(C(F)F)s2)C[C@H]1C [EVO29351] | < 100 nM |
| CC(C)C(=O)C(=O)N1CCN(c2cc(S(=O)(=O)NC3(C)CC3)cc3c2cnn3-c2nnc(C(F)F)s2)C[C@H]1C [EVO29383] | < 100 nM |
| Cc1nnc(-n2ncc3c(N4CCN(C(=O)C(=O)C(C)C)[C@H](C)C4)cc(S(=O)(=O)NC4(C)CC4)cc32)s1 [EVO29384] | < 100 nM |
| Cc1nnc(-n2ncc3c(N4CCN(C(=O)C(=O)C(C)C)[C@H](C)C4)cc(S(=O)(=O)NC4(C#N)CC4)cc32)s1 [EVO29385] | < 100 nM |
| C[C@@H]1CN(c2cc(S(=O)(=O)NC3(C#N)CC3)cc3c2cnn3-c2nnc(C(F)F)s2)CCN1C(=O)C(=O)C1CC1 [EVO29386] | 100 to 500 nM |
| C[C@@H]1CN(c2cc(S(=O)(=O)NC3(C)CC3)cc3c2cnn3-c2nnc(C(F)F)s2)CCN1C(=O)C(=O)C1CC1 [EVO29387] | < 100 nM |
| CC(=O)C(=O)N1CCN(c2cc(S(=O)(=O)NC3(C)CC3)cc3c2cnn3-c2nnc(C(F)F)s2)C[C@H]1C [EVO29388] | < 100 nM |
| C[C@@H]1CN(c2cc(S(=O)(=O)NC3(C#N)CC3)cc3c2cnn3-c2nnc(C(F)F)s2)CCN1C(=O)C(=O)C(C)(C)C [EVO29405] | < 100 nM |
| C[C@@H]1CN(c2cc(S(=O)(=O)NC3(C)CC3)cc3c2cnn3-c2nnc(C(F)F)s2)CCN1C(=O)C(=O)C(C)(C)C [EVO29406] | < 100 nM |
| Cc1nnc(-n2ncc3c(N4CCN(C(=O)C(=O)C(C)(C)C)[C@H](C)C4)cc(S(=O)(=O)NC4(C#N)CC4)cc32)s1 [EVO29407] | < 100 nM |
| Cc1nnc(-n2ncc3c(N4CCN(C(=O)C(=O)C(C)(C)C)[C@H](C)C4)cc(S(=O)(=O)NC4(C)CC4)cc32)s1 [EVO29408] | < 100 nM |
| CO[C@H](C)C(=O)N1CCN(c2cc(S(=O)(=O)NC3(C#N)CC3)cc3c2cnn3-c2nnc(C(F)F)s2)C[C@H]1C [EVO29409] | < 100 nM |
| CO[C@H](C)C(=O)N1CCN(c2cc(S(=O)(=O)NC3(C)CC3)cc3c2cnn3-c2nnc(C(F)F)s2)C[C@H]1C [EVO29410] | < 100 nM |
| CO[C@H](C)C(=O)N1CCN(c2cc(S(=O)(=O)NC3(C#N)CC3)cc3c2cnn3-c2nnc(C)s2)C[C@H]1C [EVO29411] | < 100 nM |
| CO[C@H](C)C(=O)N1CCN(c2cc(S(=O)(=O)NC3(C)CC3)cc3c2cnn3-c2nnc(C)s2)C[C@H]1C [EVO29412] | < 100 nM |
| CC(C)C(=O)C(=O)N1CCN(c2cc(S(=O)(=O)NC3(C#N)CC3)cc3c2cnn3-c2nnc(C(F)F)s2)CC1 [EVO29417] | < 100 nM |
| CO[C@@H](C(=O)N1CCN(c2cc(S(=O)(=O)NC3(C#N)CC3)cc3c2cnn3-c2nnc(C(F)F)s2)C[C@H]1C)C(C)C [EVO29418] | < 100 nM |
| CO[C@@H](C(=O)N1CCN(c2cc(S(=O)(=O)NC3(C)CC3)cc3c2cnn3-c2nnc(C(F)F)s2)C[C@H]1C)C(C)C [EVO29419] | < 100 nM |

Other lines, results leading:

| IC50 | Structure (SMILES) |
| --- | --- |
| < 100 nM | C[C@@H]1CN(c2cc(S(=O)(=O)NC3(C#N)CC3)cc3c2cnn3-c2nnc(C(F)F)s2)CCN1C(=O)C(O)C1CC1 (single isomer, unassigned) [EVO29534] |
| < 100 nM | C[C@@H]1CN(c2cc(S(=O)(=O)NC3(C#N)CC3)cc3c2cnn3-c2nnc(C(F)F)s2)CCN1C(=O)C(O)C1CC1 (single isomer, unassigned) [EVO29537] |
| < 100 nM | CCOC(C(=O)N1CCN(c2cc(S(=O)(=O)NC3(C#N)CC3)cc3c2cnn3-c2nnc(C(F)F)s2)C[C@H]1C)C1CC1 (single isomer, unassigned) [EVO29710P1] |
| < 100 nM | CCOC(C(=O)N1CCN(c2cc(S(=O)(=O)NC3(C#N)CC3)cc3c2cnn3-c2nnc(C(F)F)s2)C[C@H]1C)C1CC1 (single isomer, unassigned) [EVO29710P2] |
| < 100 nM | COC(C(=O)N1CCN(c2cc(S(=O)(=O)NC3(C#N)CC3)cc3c2cnn3-c2nnc(C(F)F)s2)C[C@H]1C)C1CC1 (single isomer, unassigned) [EVO29715P1] |
| < 100 nM | COC(C(=O)N1CCN(c2cc(S(=O)(=O)NC3(C#N)CC3)cc3c2cnn3-c2nnc(C(F)F)s2)C[C@H]1C)C1CC1 (single isomer, unassigned) [EVO29715P2] |
| < 100 nM | C[C@@H]1CN(c2cc(S(=O)(=O)NC3(C#N)CC3)cc3c2cnn3-c2nnc(C(F)F)s2)CCN1C(=O)C(O)C(C)(C)CF (single isomer, unassigned) [EVO29751P1] |
| < 100 nM | C[C@@H]1CN(c2cc(S(=O)(=O)NC3(C#N)CC3)cc3c2cnn3-c2nnc(C(F)F)s2)CCN1C(=O)C(O)C(C)(C)CF (single isomer, unassigned) [EVO29751P2] |
| < 100 nM | C[C@@H]1CN(c2cc(S(=O)(=O)NC3(C#N)CC3)cc3c2cnn3-c2nnc(C(F)F)s2)CCN1C(=O)C(O)C(C)(C)C(F)F (single isomer, unassigned) [EVO29752P1] |
| < 100 nM | C[C@@H]1CN(c2cc(S(=O)(=O)NC3(C#N)CC3)cc3c2cnn3-c2nnc(C(F)F)s2)CCN1C(=O)C(O)C(C)(C)C(F)F (single isomer, unassigned) [EVO29752P2] |
| < 100 nM | C[C@@H]1CN(c2cc(S(=O)(=O)NC3(C#N)CC3)cc3c2cnn3-c2nnc(C(F)F)s2)CCN1C(=O)C(O)C(C)(C)CO (single isomer, unassigned) [EVO29790P1] |
| < 100 nM | C[C@@H]1CN(c2cc(S(=O)(=O)NC3(C#N)CC3)cc3c2cnn3-c2nnc(C(F)F)s2)CCN1C(=O)C(O)C(C)(C)CO (single isomer, unassigned) [EVO29790P2] |
| < 100 nM | N#CC1(NS(=O)(=O)c2cc(N3CCN(C(=O)CO)CC3)c3cnn(-c4nnc(C(F)F)s4)c3c2)CC1 [EVO29103] |
| < 100 nM | C[C@@H](O)C(=O)N1CCN(c2cc(S(=O)(=O)NC3(C#N)CC3)cc3c2cnn3-c2nnc(C(F)F)s2)CC1 [EVO29284] |
| < 100 nM | C[C@@H]1CN(c2cc(S(=O)(=O)NC3(C#N)CC3)cc3c2cnn3-c2nnc(C(F)F)s2)CCN1C(=O)[C@@H](C)O [EVO29285] |
| < 100 nM | CC(C)C(=O)C(=O)N1CCN(c2cc(S(=O)(=O)NC3(C#N)CC3)cc3c2cnn3-c2nnc(C(F)F)s2)C[C@H]1C [EVO29291] |
| < 100 nM | C[C@@H]1CN(c2cc(S(=O)(=O)NC3(C#N)CC3)cc3c2cnn3-c2nnc(C(F)F)s2)CCN1C(=O)C(N)=O [EVO29298] |
| < 100 nM | C[C@H](O)C(=O)N1CCN(c2cc(S(=O)(=O)NC3(C#N)CC3)cc3c2cnn3-c2nnc(C(F)F)s2)C[C@H]1C [EVO29334] |
